Target: Tumor necrosis factor (Homo sapiens, UniProt P01375)
Test: Inhibition of TNFalpha (unknown origin) in HEK-Blue-hTLR2 cells assessed as inhibition of TNFalpha-induced NFkappaB activation pretreated for 2 hrs followed by incubation with TNFalpha for 18 hrs by SEAP assay

Sequence of Tumor necrosis factor (P01375 whole entry): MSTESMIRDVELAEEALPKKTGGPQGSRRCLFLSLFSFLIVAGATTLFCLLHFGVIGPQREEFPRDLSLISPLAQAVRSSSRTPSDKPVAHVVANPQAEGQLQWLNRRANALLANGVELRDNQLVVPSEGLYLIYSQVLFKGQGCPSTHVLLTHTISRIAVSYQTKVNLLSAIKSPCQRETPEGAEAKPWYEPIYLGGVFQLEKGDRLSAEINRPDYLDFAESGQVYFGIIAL

Compound	IC50 [µM]
CCCCCCCCCCCCCCOCC(CNC(=O)CC[C@H](NC(=O)OCC1c2ccccc2-c2ccccc21)C(=O)O)OCCCCCCCCCCCCCC (some centres not stated)	> 30
CCCCCCCCCCCCCCOCC(CNC(=O)[C@H](CCCCN)NC(=O)OCC1c2ccccc2-c2ccccc21)OCCCCCCCCCCCCCC (some centres not stated)	> 30
CCCCCCCCCCCCCCOCC(CNC(=O)C(CC1CCNCC1)NC(=O)OCC1c2ccccc2-c2ccccc21)OCCCCCCCCCCCCCC (configuration not stated)	> 30
CCCCCCCCCCCCCCOCC(CNC(=O)[C@H]1CCCN1)OCCCCCCCCCCCCCC (some centres not stated)	> 30
CCCCCCCCCCCCCCOCC(CNC(=O)CCN)OCCCCCCCCCCCCCC (configuration not stated)	> 30
CCCCCCCCCCCCCCOCC(CNC(=O)[C@@H](N)CCCCN)OCCCCCCCCCCCCCC (some centres not stated)	> 30
CCCCCCCCCCCCCCOCC(CNC(=O)[C@H](CCCCN)NC(C)=O)OCCCCCCCCCCCCCC (some centres not stated)	> 30
CCCCCCCCCCCCCCOCC(CNC(=O)CCCCCN)OCCCCCCCCCCCCCC (configuration not stated)	> 30
CCCCCCCCCCCCCCOCC(CNC(=O)[C@H]1CC[C@H](N)CC1)OCCCCCCCCCCCCCC (some centres not stated)	> 30
CCCCCCCCCCCCCCOCC(CNC(=O)[C@@H](CCCCN)NC(=O)OCc1ccccc1)OCCCCCCCCCCCCCC (some centres not stated)	> 30
CCCCCCCCCCCCCCOCC(CNC(=O)C1(NC(=O)OCc2ccccc2)CCNCC1)OCCCCCCCCCCCCCC (configuration not stated)	> 30
CCCCCCCCCCCCCCOCC(CNC(=O)[C@H](CCCCN)NCc1ccc(F)cc1)OCCCCCCCCCCCCCC (some centres not stated)	> 30
CCCCCCCCCCCCCCOCC(CNC(=O)[C@H](CCCCN)NCc1ccc(-c2ccccc2)cc1)OCCCCCCCCCCCCCC (some centres not stated)	> 30
CCCCCCCCCCCCCCOCC(CNC(=O)[C@@H](CCCCN)NCc1ccccc1)OCCCCCCCCCCCCCC (some centres not stated)	> 30
CCCCCCCCCCCCCCOCC(CNC(=O)[C@H](CCCCN)NCc1ccccc1)OCCCCCCCCCCCCCC (some centres not stated)	> 30
CCCCCCCCCCCCCCOCC(CNC(=O)c1cccc(N2CCNCC2)c1)OCCCCCCCCCCCCCC (configuration not stated)	> 30
CCCCCCCCCCCCCCOCC(CNC(=O)c1cccc(C2CCNCC2)c1)OCCCCCCCCCCCCCC (configuration not stated)	> 30

— BindingDB's records for doi:10.1016/j.bmcl.2021.127861 (Neuropore Therapies, 2021)
